Measured values taken from patent US20110212196A1, “THERAPEUTIC OIL COMPOSITION CONTAINING CARVONE” (MAINE CONSERVATION MEDICINE CENTER, priority 2010, published 2011).

What was measured:
elasmobranch fishes = experiment: anesthesia of elasmobranch fishes by immersion; type: in vivo, spiny dogfish Squalus acanthias; conditions: 400-600 mg/L carvone alone, oil-in-water emulsion
Excerpt: 3. […] For examples spiny dogfish Squalus acanthias can be anesthetized by immersion.

fish = conditions: in vivo; cited from earlier work

SMILES | anesthesia (elasmobranch fishes) | safety during anesthesia/euthanasia (fish)
C=C(C)C1CC=C(C)C(=O)C1 (centres unmarked) [carvone] | will anesthetize | 
O=C=O [carbon dioxide] |  | Some fish died during anesthesia
